Laboratory results: patent publication US9242996B2 (Novartis AG, priority 2013, dated 2016)

target: activated ERK2 (Homo sapiens (Human), UniProt P28482); assay: Activated ERK2 kinase assay, ERK2 New conditions (AlphaScreen, ERKtide phosphorylation); assay type: biochemical; conditions: 0.25 nM ERK2, 200 nM ERKtide peptide, 35 μM ATP, 30 min preincubation
How it was run: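 0.25 nM ERK2 preincubated 30 min with compound, then reacted 2–3 h at ambient temperature with 200 nM ERKtide and 35 µM ATP (final) in HEPES pH 7.5 buffer. EDTA stop; phospho-peptide detected by AlphaScreen after overnight incubation; IC50 from four-parameter fit.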

Chain of activated ERK2 (P28482 whole entry): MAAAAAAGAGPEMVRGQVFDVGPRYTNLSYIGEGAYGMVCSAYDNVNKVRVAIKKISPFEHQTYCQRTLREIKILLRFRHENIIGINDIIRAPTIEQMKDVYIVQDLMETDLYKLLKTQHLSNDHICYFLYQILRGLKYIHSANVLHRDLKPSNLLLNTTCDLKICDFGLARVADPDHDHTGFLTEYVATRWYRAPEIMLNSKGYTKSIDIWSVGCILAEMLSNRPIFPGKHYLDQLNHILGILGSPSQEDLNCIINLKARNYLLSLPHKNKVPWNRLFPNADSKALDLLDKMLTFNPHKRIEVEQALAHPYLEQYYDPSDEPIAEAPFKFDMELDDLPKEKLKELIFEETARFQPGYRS

IC50	Compound
0.998 nM	Cn1cnnc1-c1cnc(N)c(-c2ccc(C(=O)N[C@H](CO)c3cccc(Cl)c3)c(F)c2)c1 [Example 167, (S)-4-(2-amino-5-(4-methyl-4H-1,2,4-triazol-3-yl)pyridin-3-yl)-N-(1-(3-chlorophenyl)-2-hydroxyethyl)-2-fluorobenzamide]
5.13 nM	Cn1cc(-c2cnc(N)c(-c3ccc(C(=O)N[C@H](CO)c4ccccc4)c(F)c3)c2)c(C(F)(F)F)n1 [Example 168, (S)-4-(2-amino-5-(1-methyl-3-(trifluoromethyl)-1H-pyrazol-4-yl)pyridin-3-yl)-2-fluoro-N-(2-hydroxy-1-phenylethyl)benzamide]
1.58 nM	Cc1c(-c2cnc(N)c(-c3ccc(C(=O)N[C@H](CO)c4ccccc4)c(F)c3)c2)cnn1C [Example 170, (S)-4-(2-amino-5-(1,5-dimethyl-1H-pyrazol-4-yl)pyridin-3-yl)-2-fluoro-N-(2-hydroxy-1-phenylethyl)benzamide]
1.09 nM	COCCn1cc(-c2cnc(N)c(-c3ccc(C(=O)N[C@H](CO)c4ccccc4)c(F)c3)c2)cn1 [Example 171, (S)-4-(2-amino-5-(1-(2-methoxyethyl)-1H-pyrazol-4-yl)pyridin-3-yl)-2-fluoro-N-(2-hydroxy-1-phenylethyl)benzamide]
2.1 nM	NC[C@@H](NC(=O)c1ccc(-c2nc(C3CCC(F)(F)CC3)cnc2N)cc1F)c1cccc(Cl)c1 [Example 197, (S)—N-(2-amino-1-(3-chlorophenyl)ethyl)-4-(3-amino-6-(4,4-difluorocyclohexyl)pyrazin-2-yl)-2-fluorobenzamide]
5.44 nM	Nc1ncc([C@H]2CC[S@+]([O-])CC2)cc1-c1ccc(C(=O)N[C@H](CO)c2cccc(Cl)c2)c(F)c1 [Example 211, 4-(2-amino-5-((1S,4r)-1-oxidotetrahydro-2H-thiopyran-4-yl)pyridin-3-yl)-N—((S)-1-(3-chlorophenyl)-2-hydroxyethyl)-2-fluorobenzamide]
0.397 nM	Nc1ncc(C2CCSCC2)cc1-c1ccc(C(=O)N[C@H](CO)c2cccc(Cl)c2)c(F)c1 [Example 212, (S)-4-(2-amino-5-(tetrahydro-2H-thiopyran-4-yl)pyridin-3-yl)-N-(1-(3-chlorophenyl)-2-hydroxyethyl)-2-fluorobenzamide]
11.9 nM	CS(=O)(=O)N1CCCC(c2cnc(N)c(-c3ccc(C(=O)N[C@H](CO)c4ccccc4)c(F)c3)n2)C1 (stereo partly drawn) [Example 213, 4-(3-amino-6-(1-(methylsulfonyl)piperidin-3-yl)pyrazin-2-yl)-2-fluoro-N—((S)-2-hydroxy-1-phenylethyl)benzamide]
13.4 nM	COC(=O)N1CCCC(c2cnc(N)c(-c3ccc(C(=O)N[C@H](CO)c4ccccc4)c(F)c3)n2)C1 (stereo partly drawn) [Example 214, methyl 3-(5-amino-6-(3-fluoro-4-(((S)-2-hydroxy-1-phenylethyl)carbamoyl)phenyl)pyrazin-2-yl)piperidine-1-carboxylate]
28.5 nM	CC(=O)N1CCCC(c2cnc(N)c(-c3ccc(C(=O)N[C@H](CO)c4ccccc4)c(F)c3)n2)C1 (stereo partly drawn) [Example 215, 4-(6-(1-acetylpiperidin-3-yl)-3-aminopyrazin-2-yl)-2-fluoro-N—((S)-2-hydroxy-1-phenylethyl)benzamide]
1.81 nM	COC(=O)N1CCCC(c2cnc(N)c(-c3ccc(C(=O)N[C@H](CO)c4cccc(Cl)c4)c(F)c3)n2)C1 (stereo partly drawn) [Example 216, methyl 3-(5-amino-6-(4-(((S)-1-(3-chlorophenyl)-2-hydroxyethyl)carbamoyl)-3-fluorophenyl)pyrazin-2-yl)piperidine-1-carboxylate]
1.13 nM	CCn1cc(-c2cnc(N)c(-c3ccc(C(=O)N[C@H](CO)c4ccccc4)c(F)c3)n2)cn1 [Example 217, (S)-4-(3-amino-6-(1-ethyl-1H-pyrazol-4-yl)pyrazin-2-yl)-2-fluoro-N-(2-hydroxy-1-phenylethyl) benzamide]
24.2 nM	Nc1ncc(C2CNC(=O)C2)cc1-c1ccc(C(=O)N[C@H](CO)c2ccccc2)c(F)c1 (stereo partly drawn) [Example 218, 4-(2-amino-5-(5-oxopyrrolidin-3-yl)pyridin-3-yl)-2-fluoro-N—((S)-2-hydroxy-1-phenylethyl)benzamide]
32.7 nM	Nc1ncc([C@@H]2CNC(=O)C2)cc1-c1ccc(C(=O)N[C@H](CO)c2ccccc2)c(F)c1 [Example 219, 4-(2-amino-5-((R)-5-oxopyrrolidin-3-yl)pyridin-3-yl)-2-fluoro-N—((S)-2-hydroxy-1-phenylethyl)benzamide]
72.3 nM	Nc1ncc([C@H]2CNC(=O)C2)cc1-c1ccc(C(=O)N[C@H](CO)c2ccccc2)c(F)c1 [Example 220, 4-(2-amino-5-((S)-5-oxopyrrolidin-3-yl)pyridin-3-yl)-2-fluoro-N—((S)-2-hydroxy-1-phenylethyl)benzamide]
30.6 nM	COC(=O)[C@@H]1C[C@H](c2cnc(N)c(-c3ccc(C(=O)N[C@H](CO)c4cccc(Cl)c4)c(F)c3)c2)CN1 [Example 221, (2S,4R)-methyl 4-(6-amino-5-(4-(((S)-1-(3-chlorophenyl)-2-hydroxyethyl)carbamoyl)-3-fluorophenyl)pyridin-3-yl)pyrrolidine-2-carboxylate]

IC50	Compound
24.8 nM	Nc1ncc([C@@H]2CN[C@H](C(=O)O)C2)cc1-c1ccc(C(=O)N[C@H](CO)c2cccc(Cl)c2)c(F)c1 [Example 222, (2S,4R)-4-(6-amino-5-(4-(((S)-1-(3-chlorophenyl)-2-hydroxyethyl)carbamoyl)-3-fluorophenyl)pyridin-3-yl)pyrrolidine-2-carboxylic acid]
10.4 nM	COC(=O)[C@@H]1C[C@H](c2cnc(N)c(-c3ccc(C(=O)N[C@H](CO)c4cccc(Cl)c4)c(F)c3)c2)CN1 [Example 223, (2S,4R)-methyl 4-(6-amino-5-(4-(((S)-1-(3-chlorophenyl)-2-hydroxyethyl)carbamoyl)-3-fluorophenyl)pyridin-3-yl)pyrrolidine-2-carboxylate]
18.8 nM	Nc1ncc(C2COC2)nc1-c1ccc(C(=O)N[C@H](CO)c2ccccc2)c(F)c1 [Example 224, (S)-4-(3-amino-6-(oxetan-3-yl)pyrazin-2-yl)-2-fluoro-N-(2-hydroxy-1-phenylethyl)benzamide]
1.07 nM	Cn1nccc1-c1cnc(N)c(-c2ccc(C(=O)N[C@H](CO)c3cccc(F)c3)c(F)c2)c1 [Example 229, (S)-4-(2-amino-5-(1-methyl-1H-pyrazol-5-yl)pyridin-3-yl)-2-fluoro-N-(1-(3-fluorophenyl)-2-hydroxyethyl) benzamide]
0.899 nM	Cn1nccc1-c1cnc(N)c(-c2ccc(C(=O)N[C@H](CO)c3cccc(S(C)(=O)=O)c3)c(F)c2)c1 [Example 230, (S)-4-(2-amino-5-(1-methyl-1H-pyrazol-5-yl)pyridin-3-yl)-2-fluoro-N-(2-hydroxy-1-(3-(methylsulfonyl)phenyl)ethyl) benzamide]
0.217 nM	Cc1cccc([C@@H](CO)NC(=O)c2ccc(-c3cc(-c4ccnn4C)cnc3N)cc2F)c1 [Example 231, (S)-4-(2-amino-5-(1-methyl-1H-pyrazol-5-yl)pyridin-3-yl)-2-fluoro-N-(2-hydroxy-1-(m-tolyl)ethyl) benzamide]
0.257 nM	Cn1nccc1-c1cnc(N)c(-c2ccc(C(=O)N[C@H](CO)c3cc(F)cc(Cl)c3)c(F)c2)c1 [Example 232, (S)-4-(2-amino-5-(1-methyl-1H-pyrazol-5-yl)pyridin-3-yl)-N-(1-(3-chloro-5-fluorophenyl)-2-hydroxyethyl)-2-fluorobenzamide]
1.47 nM	Cn1cncc1-c1cnc(N)c(-c2ccc(C(=O)N[C@H](CO)c3cccc(F)c3)c(F)c2)c1 [Example 234, (S)-4-(2-amino-5-(1-methyl-1H-imidazol-5-yl)pyridin-3-yl)-2-fluoro-N-(1-(3-fluorophenyl)-2-hydroxyethyl) benzamide]
0.326 nM	Cn1cncc1-c1cnc(N)c(-c2ccc(C(=O)N[C@H](CO)c3cccc(Cl)c3)c(F)c2)c1 [Example 235, (S)-4-(2-amino-5-(1-methyl-1H-imidazol-5-yl)pyridin-3-yl)-N-(1-(3-chlorophenyl)-2-hydroxyethyl)-2-fluorobenzamide]
56.6 nM	Cn1cc(-c2cnc(N)c(-c3ccc(C(=O)NCc4cccc(Cl)n4)c(F)c3)c2)cn1 [Example 236, 4-(2-amino-5-(1-methyl-1H-pyrazol-4-yl)pyridin-3-yl)-N-((6-chloropyridin-2-yl)methyl)-2-fluorobenzamide]
2610 nM	Cn1cc(CNC(=O)c2ccc(-c3cc(-c4cnn(C)c4)cnc3N)cc2F)cn1 [Example 237, 4-(2-amino-5-(1-methyl-1H-pyrazol-4-yl)pyridin-3-yl)-2-fluoro-N-((1-methyl-1H-pyrazol-4-yl)methyl) benzamide]
352 nM	Cn1cc(-c2cnc(N)c(-c3ccc(C(=O)NCc4nccs4)c(F)c3)c2)cn1 [Example 238, 4-(2-amino-5-(1-methyl-1H-pyrazol-4-yl)pyridin-3-yl)-2-fluoro-N-(thiazol-2-ylmethyl) benzamide]
28.5 nM	Cn1cc(-c2cnc(N)c(-c3ccc(C(=O)NCc4ccsc4)c(F)c3)c2)cn1 [Example 239, 4-(2-amino-5-(1-methyl-1H-pyrazol-4-yl)pyridin-3-yl)-2-fluoro-N-(thiophen-3-ylmethyl) benzamide]
2.67 nM	Cn1cc(-c2cnc(N)c(-c3ccc(C(=O)NCc4cccc(C(F)F)c4)c(F)c3)c2)cn1 [Example 245, 4-(2-amino-5-(1-methyl-1H-pyrazol-4-yl)pyridin-3-yl)-N-(3-(difluoromethyl)benzyl)-2-fluorobenzamide]
1.52 nM	Cn1cc(-c2cnc(N)c(-c3ccc(C(=O)NCc4cccc(Br)c4)c(F)c3)c2)cn1 [Example 246, 4-(2-amino-5-(1-methyl-1H-pyrazol-4-yl)pyridin-3-yl)-N-(3-bromobenzyl)-2-fluorobenzamide]
0.73 nM	Cc1c(-c2cnc(N)c(-c3ccc(C(=O)N[C@H](CO)c4ccccc4)c(F)c3)n2)cnn1C [Example 247, (S)-4-(3-amino-6-(1,5-dimethyl-1H-pyrazol-4-yl)pyrazin-2-yl)-2-fluoro-N-(2-hydroxy-1-phenylethyl) benzamide]
